The test system of series [1] is transplanted tumor of human breast cancer MDA-MB-231 cells. Description: Human breast cancer (MDA-MB-231) in nude mice model. The following applies: MDA-MB-231 nude mice; 30 mg/kg i.g. 30 d. Here is the method: Then cell concentration was adjusted to 1×10^7/ml with matrigel, and then each nude mouse was inoculated subcutaneously with 0.2 ml of cells at its right armpit and recorded as the first day of inoculation. […] Each group was continuously administered intragastrically for 30 days with a dose of 20 ml/kg. The mice were sacrificed the next day after drug withdrawal and the indicators were tested. The long diameter and short diameter of the tumor, and the body weight of each mouse were recorded every 3 days from drug administration to nude mouse sacrifice.
The body weight of the nude mice and the long diameter (a) and short diameter (b) of the transplanted tumor were measured every 3 days, and the tumor volume (v), relative tumor volume (RTV) and relative tumor proliferation rate (T/C) are calculated respectively according to the following formulas, wherein V=a×b^2/2; RTV=V/V0 (V0 is the tumor volume before administration, V is the tumor volume before sacrifice), and T/C (%)=treatment group RTV/model control group RTV×100%.
Each mouse was weighed and sacrificed. After the tumor was completely stripped off from the body of the mouse, the non-tumor tissues such as blood stains and fat were removed to weigh the tumor and calculate the tumor growth inhibition rate. The average tumor weight of each group of mice is used as an indicator of efficacy. Tumor growth inhibition rate (%)=(1−the average tumor weight of the treatment group/the average tumor weight of the model group)×100%.

In series [2] the test system is spleen lymphocytes (ConA, LPS stimulation). Description: Spleen lymphocyte proliferation activity of Lewis lung cancer tumor-bearing mice. The series is classed as in vivo, C57BL/6 mouse. Here is the method:
The serum-free RPMI 1640 medium was placed in a dish, and then the dish was placed on ice. The spleen was aseptically taken and gently ground with a sterile glass slide to prepare a single cell suspension. The single cell suspension was filtered with a double-layer sterile gauze, washed twice with serum-free RPMI 1640 medium, and centrifuged at 1,500 rpm for 5 min to remove the obtained supernatant. 2 mL of red blood cell lysate was added to the treated suspension, the mixture was allowed to stand for 2 min, and then 8 mL of RPMI 1640 medium was added, centrifuging was performed at 1,500 rpm for 5 min to remove the obtained supernatant, and then washing was performed twice with the RPMI 1640 medium. Trypan blue staining was performed to count the number of live cells, and the cell viability was more than 95%. A single cell suspension was prepared by using a RPMI 1640 medium containing 10% fetal bovine serum.
The spleen cell suspension was taken, and the cell density was adjusted to 1×10^7/mL. Each mouse was set with: A. a control well: 100 μL of RPMI 1640 medium was added; B. a concanavalin A (ConA) stimulation well: 100 μL (10 mg/L) of concanavalin A (ConA) solution was added; and C. a bacterial endotoxin (LPS) stimulating well: 100 μL (20 mg/L) of bacterial endotoxin (LPS) solution was added. The above cells were added to a 96-well plate, and then 100 μL of spleen cell suspension was added to each of the above wells. After the culture plate was transferred to a saturated humidity condition with a volume fraction of 5% CO2 at 37° C. for incubation for 72 h, 10 μL of MTT solution (5 g/L) was added to each well, and incubation was continued to be performed for 4 hours under the same conditions, then the culture was terminated. […] The Optical Density (OD) of each well was measured at 570 nm, and the lymphocyte proliferation rate was calculated. Lymphocyte proliferation rate (%)=[(T−C)/C]×100%, wherein T is the Optical Density of the stimulation well, and C is the Optical Density of the control well.

Setting [3] is: 26 mg/kg, positive drug group, n = 6.

Results on one molecule are retold here after US11077126B2 (priority 2017, dated 2021).

Regarding `O=P1(N(CCCl)CCCl)NCCCO1` (centres unmarked) [Cyclophosphamide], in series [1], the “Body Weight (g)(d1)” value worked out at 21.28 ± 0.95 g, the “Body Weight (g)(d30)” value was determined as 19.79 ± 1.03 g, the “Inhibition Rate (%)” value is reported as 79.75% and the “Relative Tumor Proliferation Rate(T/C)” value came to 28.59%. In addition, in series [1], the “Relative Tumor Volume (RTV)” value was 3.46 ± 0.70, the “Tumor Volume (mm3) (d1)” value is given as 169.73 ± 11.79 mm3, the “Tumor Volume (mm3) (d30)” value came out at 587.27 ± 30.47 mm3 and the “Tumor Weight” value is recorded as 0.27 ± 0.11 g. For the same molecule, in series [2] (setting [3]), the “B Lymphocyte Proliferation Activity (%)” value is on record as 11.63 ± 4.68 % and the “T Lymphocyte Proliferation Activity (%)” value is reported as 13.24 ± 3.72 %. Further, in series [2] (Lewis lung cancer tumor-bearing mice, cyclophosphamide, P<0.05), the “lymphocyte activity (proliferation)” value is on record as “significantly inhibited”.
